# Measurements from the NIST ThermoML archive (doi:10.1016/j.jct.2013.12.024).
# Numbers after ± are expanded uncertainties.
# Details: 298.15 K; 101.33 kPa; Liquid; Vibrating tube method
row,SMILES,mass density [kg/m3]
1,CCCCCCCl [1-chlorohexane],873.38 ± 0.3
2,c1ccccc1 [benzene],873.45 ± 0.11
3,"Clc1cccc(Cl)c1 [1,3-dichlorobenzene]",1282.87 ± 0.61
